Columns and labels:
Cytochrome P450 2E1 = Cytochrome P450 2E1 (Homo sapiens, UniProt P05181); further: in other assays of this panel Not Active means under 50% inhibition at 10 µM
[1] = target: Tyrosine-protein kinase Fyn (Homo sapiens, UniProt P06241); experiment: biochemical; assay type: cell-based, Insect cells;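 further: enzymatic inhibition of Fyn kinase activity measured with Poly(Glu:Tyr) as the phosphorylation substrate; in other assays of this panel Not Active means under 50% inhibition at 10 µM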
D(4) dopamine receptor = target: T1, D(4) dopamine receptor (Homo sapiens, UniProt P21917); experiment: DRUGMATRIX: Dopamine D4.2 radioligand binding (ligand: [3H] Spiperone); assay type: cell membranes, CHO-K1, Membrane; details: cho-k1; Not Active = under 50% inhibition at 10 µM
T1 sequence (P21917 whole entry): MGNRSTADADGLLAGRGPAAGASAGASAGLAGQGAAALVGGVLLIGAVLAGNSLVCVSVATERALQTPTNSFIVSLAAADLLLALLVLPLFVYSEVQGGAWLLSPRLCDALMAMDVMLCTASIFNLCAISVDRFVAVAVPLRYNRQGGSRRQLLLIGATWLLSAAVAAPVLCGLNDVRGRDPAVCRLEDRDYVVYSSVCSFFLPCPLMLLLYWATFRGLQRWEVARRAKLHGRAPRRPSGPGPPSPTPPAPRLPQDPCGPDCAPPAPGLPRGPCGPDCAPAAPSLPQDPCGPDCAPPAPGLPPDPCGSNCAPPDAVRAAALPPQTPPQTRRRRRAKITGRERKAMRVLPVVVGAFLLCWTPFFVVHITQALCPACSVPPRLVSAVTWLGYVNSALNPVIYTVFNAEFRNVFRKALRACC

Cytochrome P450 2D6 = Cytochrome P450 2D6 (Homo sapiens, UniProt P10635); further: in other assays of this panel Not Active means under 50% inhibition at 10 µM
Cytochrome P450 3A4 = Cytochrome P450 3A4 (Homo sapiens, UniProt P08684); further: in other assays of this panel Not Active means under 50% inhibition at 10 µM
Androgen receptor [2] = target: T2, Androgen receptor (Rattus norvegicus, UniProt P15207); further: in other assays of this panel Not Active means under 50% inhibition at 10 µM
T2 sequence (P15207 whole entry): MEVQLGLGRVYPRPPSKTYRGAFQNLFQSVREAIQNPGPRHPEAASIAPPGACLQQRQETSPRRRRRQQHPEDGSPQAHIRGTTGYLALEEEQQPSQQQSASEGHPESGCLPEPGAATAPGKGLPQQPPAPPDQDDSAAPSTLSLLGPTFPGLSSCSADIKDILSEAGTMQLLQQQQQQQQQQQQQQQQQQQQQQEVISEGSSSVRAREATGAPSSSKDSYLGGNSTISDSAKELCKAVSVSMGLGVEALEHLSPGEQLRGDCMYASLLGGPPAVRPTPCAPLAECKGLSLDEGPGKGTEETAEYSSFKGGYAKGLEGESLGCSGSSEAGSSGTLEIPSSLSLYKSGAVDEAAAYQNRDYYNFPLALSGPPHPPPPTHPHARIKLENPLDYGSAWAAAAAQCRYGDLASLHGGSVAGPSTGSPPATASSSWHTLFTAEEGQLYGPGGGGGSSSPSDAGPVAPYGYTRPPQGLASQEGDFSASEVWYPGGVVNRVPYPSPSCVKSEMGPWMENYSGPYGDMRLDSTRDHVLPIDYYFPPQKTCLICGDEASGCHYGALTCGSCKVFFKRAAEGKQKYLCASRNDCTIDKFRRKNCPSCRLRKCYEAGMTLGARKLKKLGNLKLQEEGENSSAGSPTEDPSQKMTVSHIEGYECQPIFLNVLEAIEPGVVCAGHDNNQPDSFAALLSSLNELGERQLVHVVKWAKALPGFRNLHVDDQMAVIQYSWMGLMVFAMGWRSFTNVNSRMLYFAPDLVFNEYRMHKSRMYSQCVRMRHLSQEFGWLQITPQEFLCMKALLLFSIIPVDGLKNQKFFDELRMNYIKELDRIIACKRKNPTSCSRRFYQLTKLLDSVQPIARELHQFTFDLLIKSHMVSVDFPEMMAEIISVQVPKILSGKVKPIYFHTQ

Cytochrome P450 2C9 = Cytochrome P450 2C9 (Homo sapiens, UniProt P11712); further: in other assays of this panel Not Active means under 50% inhibition at 10 µM
Glucocorticoid receptor = target: T3, Glucocorticoid receptor (Homo sapiens, UniProt P04150); experiment: biochemical; further: in other assays of this panel Not Active means under 50% inhibition at 10 µM
T3 sequence (P04150 whole entry): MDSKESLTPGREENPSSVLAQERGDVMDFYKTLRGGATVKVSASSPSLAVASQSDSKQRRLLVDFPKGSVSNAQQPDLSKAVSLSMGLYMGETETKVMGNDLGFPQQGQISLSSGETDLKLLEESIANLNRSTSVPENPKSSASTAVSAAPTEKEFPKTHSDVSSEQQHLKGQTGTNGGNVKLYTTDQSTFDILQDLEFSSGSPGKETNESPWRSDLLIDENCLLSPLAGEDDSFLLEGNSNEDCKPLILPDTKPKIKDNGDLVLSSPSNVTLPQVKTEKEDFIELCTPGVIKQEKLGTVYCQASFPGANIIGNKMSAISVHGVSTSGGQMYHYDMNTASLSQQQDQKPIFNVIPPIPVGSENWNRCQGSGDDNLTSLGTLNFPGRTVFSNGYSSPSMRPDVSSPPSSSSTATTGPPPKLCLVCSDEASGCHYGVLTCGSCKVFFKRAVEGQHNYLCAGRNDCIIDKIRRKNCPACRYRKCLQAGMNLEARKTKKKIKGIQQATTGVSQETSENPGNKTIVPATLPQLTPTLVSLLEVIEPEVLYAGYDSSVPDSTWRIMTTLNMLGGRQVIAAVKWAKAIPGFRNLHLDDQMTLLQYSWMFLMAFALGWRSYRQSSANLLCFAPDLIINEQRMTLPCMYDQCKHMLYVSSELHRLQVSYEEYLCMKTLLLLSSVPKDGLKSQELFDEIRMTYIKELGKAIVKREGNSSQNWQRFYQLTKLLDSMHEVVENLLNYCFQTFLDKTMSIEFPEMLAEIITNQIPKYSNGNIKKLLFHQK

Cytochrome P450 2C19 = Cytochrome P450 2C19 (Homo sapiens, UniProt P33261); further: in other assays of this panel Not Active means under 50% inhibition at 10 µM
Androgen receptor [3] = target: T2, Androgen receptor; remark: listed apart in the source

Sequence of Cytochrome P450 2C9 (P11712 whole entry): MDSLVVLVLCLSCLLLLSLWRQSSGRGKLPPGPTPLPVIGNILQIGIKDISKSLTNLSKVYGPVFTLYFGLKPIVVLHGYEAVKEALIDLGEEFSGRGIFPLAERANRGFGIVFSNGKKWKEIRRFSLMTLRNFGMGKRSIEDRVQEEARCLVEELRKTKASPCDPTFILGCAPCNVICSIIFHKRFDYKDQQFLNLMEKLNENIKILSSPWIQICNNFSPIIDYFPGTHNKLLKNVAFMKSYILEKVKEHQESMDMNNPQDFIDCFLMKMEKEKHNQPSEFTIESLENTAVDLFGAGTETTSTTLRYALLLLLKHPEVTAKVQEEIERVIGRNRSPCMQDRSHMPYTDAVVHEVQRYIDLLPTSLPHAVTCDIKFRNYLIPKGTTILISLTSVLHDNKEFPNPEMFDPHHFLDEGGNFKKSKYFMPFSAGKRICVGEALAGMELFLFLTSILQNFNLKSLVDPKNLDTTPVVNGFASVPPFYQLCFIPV
Sequence of Cytochrome P450 2C19 (P33261 whole entry): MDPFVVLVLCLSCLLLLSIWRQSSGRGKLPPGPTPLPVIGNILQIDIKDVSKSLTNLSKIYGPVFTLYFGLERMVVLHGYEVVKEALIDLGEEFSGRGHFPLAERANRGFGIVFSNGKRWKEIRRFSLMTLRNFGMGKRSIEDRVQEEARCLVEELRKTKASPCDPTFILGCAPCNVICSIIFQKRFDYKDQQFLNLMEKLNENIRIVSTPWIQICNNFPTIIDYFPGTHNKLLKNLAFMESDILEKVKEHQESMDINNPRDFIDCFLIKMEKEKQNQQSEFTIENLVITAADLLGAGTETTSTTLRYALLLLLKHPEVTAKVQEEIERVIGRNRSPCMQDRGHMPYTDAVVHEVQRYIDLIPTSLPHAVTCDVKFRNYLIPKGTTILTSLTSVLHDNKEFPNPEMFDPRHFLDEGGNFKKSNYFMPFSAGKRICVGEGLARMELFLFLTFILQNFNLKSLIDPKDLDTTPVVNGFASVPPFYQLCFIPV
Sequence of Cytochrome P450 2D6 (P10635 whole entry): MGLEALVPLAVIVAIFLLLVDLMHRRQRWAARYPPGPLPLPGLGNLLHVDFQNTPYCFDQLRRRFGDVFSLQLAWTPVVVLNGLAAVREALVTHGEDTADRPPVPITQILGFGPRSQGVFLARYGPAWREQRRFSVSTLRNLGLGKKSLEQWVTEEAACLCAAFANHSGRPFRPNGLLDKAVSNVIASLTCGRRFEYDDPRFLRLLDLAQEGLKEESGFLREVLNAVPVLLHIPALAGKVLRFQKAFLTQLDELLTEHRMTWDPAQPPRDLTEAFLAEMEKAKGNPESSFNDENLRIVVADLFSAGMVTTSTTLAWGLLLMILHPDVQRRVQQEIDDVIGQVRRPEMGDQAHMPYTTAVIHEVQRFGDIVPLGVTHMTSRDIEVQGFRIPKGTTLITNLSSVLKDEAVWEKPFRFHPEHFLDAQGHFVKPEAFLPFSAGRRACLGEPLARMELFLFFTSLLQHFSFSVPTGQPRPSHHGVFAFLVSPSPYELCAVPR
Sequence of Tyrosine-protein kinase Fyn (P06241 whole entry): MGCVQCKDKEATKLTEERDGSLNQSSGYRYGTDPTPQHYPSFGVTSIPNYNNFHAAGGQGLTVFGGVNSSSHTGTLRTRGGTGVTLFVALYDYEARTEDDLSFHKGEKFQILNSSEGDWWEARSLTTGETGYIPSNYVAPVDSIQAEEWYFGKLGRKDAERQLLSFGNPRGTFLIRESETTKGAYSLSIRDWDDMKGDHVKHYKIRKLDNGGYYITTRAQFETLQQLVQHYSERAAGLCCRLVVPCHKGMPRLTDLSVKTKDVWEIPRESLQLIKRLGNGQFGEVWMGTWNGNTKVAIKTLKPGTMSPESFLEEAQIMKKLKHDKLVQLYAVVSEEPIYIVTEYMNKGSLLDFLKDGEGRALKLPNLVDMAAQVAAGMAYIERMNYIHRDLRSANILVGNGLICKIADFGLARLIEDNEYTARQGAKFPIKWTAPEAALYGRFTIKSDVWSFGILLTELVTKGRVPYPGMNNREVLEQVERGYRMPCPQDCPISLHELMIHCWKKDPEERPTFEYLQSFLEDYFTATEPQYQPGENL
Sequence of Cytochrome P450 2E1 (P05181 whole entry): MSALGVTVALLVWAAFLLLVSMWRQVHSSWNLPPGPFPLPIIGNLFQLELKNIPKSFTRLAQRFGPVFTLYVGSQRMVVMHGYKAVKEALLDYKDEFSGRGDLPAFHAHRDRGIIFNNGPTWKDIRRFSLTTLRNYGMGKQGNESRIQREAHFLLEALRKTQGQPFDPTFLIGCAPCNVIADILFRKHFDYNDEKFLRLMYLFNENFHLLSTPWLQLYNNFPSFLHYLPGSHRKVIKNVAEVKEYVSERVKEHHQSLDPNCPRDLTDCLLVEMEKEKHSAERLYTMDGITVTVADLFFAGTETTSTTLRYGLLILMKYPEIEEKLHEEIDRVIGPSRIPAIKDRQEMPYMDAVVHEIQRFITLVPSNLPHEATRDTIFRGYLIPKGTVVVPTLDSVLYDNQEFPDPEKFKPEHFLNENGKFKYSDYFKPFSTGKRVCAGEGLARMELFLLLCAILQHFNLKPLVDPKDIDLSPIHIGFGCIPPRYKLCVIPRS
Sequence of Cytochrome P450 3A4 (P08684 whole entry): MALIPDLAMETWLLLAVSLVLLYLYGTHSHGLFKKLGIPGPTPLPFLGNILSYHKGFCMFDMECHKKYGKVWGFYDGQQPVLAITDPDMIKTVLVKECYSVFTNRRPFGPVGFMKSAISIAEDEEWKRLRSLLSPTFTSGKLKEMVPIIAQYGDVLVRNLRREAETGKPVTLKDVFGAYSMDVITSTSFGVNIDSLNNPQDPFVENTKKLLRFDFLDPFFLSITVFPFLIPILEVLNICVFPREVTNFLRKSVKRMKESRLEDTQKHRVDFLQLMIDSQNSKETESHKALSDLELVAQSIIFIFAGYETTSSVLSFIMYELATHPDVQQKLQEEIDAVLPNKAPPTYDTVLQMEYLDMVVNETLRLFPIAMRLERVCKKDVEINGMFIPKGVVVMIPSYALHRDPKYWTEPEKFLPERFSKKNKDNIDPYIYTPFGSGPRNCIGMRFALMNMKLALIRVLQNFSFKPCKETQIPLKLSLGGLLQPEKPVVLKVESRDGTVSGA

| Compound | IC50 ([1]; insect cells) | IC50 (D(4) dopamine receptor) | IC50 (Androgen receptor [2]) | other results |
| --- | --- | --- | --- | --- |
| ClC(Cl)(Cl)Cl [CARBON TETRACHLORIDE] | Not Active | Not Active |  | IC50 (Cytochrome P450 2E1): 11000 nM |
| CC[C@H]1[C@@H]2C[C@H]3[C@@H]4N(C)c5ccccc5[C@]45C[C@@H]([C@@H]2[C@H]5O)N3[C@@H]1O [AJMALINE] | Not Active | Not Active |  | IC50 (Cytochrome P450 2D6): 1000 nM |
| CC(C)C[C@H]1C(=O)N2CCC[C@H]2[C@]2(O)O[C@](NC(=O)[C@@H]3C=C4c5cccc6[nH]cc(c56)C[C@H]4N(C)C3)(C(C)C)C(=O)N12 [ERGOCRYPTINE] | Not Active | Not Active | Not Active | IC50 (Cytochrome P450 3A4): 600 nM; IC50 (Cytochrome P450 2C9): 6000 nM |
| CC(=O)OCC(=O)[C@@]12OC(C)(C)O[C@@H]1C[C@H]1[C@@H]3C[C@H](F)C4=CC(=O)C=C[C@]4(C)[C@@]3(F)[C@@H](O)C[C@@]12C [FLUOCINONIDE] | Not Active | Not Active |  | IC50 (Glucocorticoid receptor): 5.26 nM; Ki (Glucocorticoid receptor): 2.39 nM |
| C#C[C@]1(O)CC[C@H]2[C@@H]3CCC4=CC(=O)CC[C@]4(C)[C@H]3CC[C@@]21C [ETHISTERONE] | Not Active | Not Active |  | IC50 (Glucocorticoid receptor): 209 nM; Ki (Glucocorticoid receptor): 95 nM |
| O=C(c1ccccc1F)N1CCC(Cc2ccccc2)CC1 | Not Active | Not Active | Not Active | IC50 (Cytochrome P450 2C19): 500 nM; IC50 (Cytochrome P450 2C9): 2000 nM |
| CC(=O)OCC(=O)[C@@]1(O)CC[C@H]2[C@@H]3CCC4=CC(=O)CC[C@]4(C)[C@@]3(F)[C@@H](O)C[C@@]21C [FLUDROCORTISONE ACETATE] | Not Active | Not Active | Not Active |  |
| COLISTIN |  | Not Active | Not Active | IC50 ([1]; insect cells, read-out: IC50): 959 nM; Ki (D(4) dopamine receptor): Not Active; Ki (Androgen receptor [2]): Not Active |
| O=c1c(-c2ccc(O)cc2)coc2cc(O)cc(O)c12 [GENISTEIN] | Not Active | Not Active | Not Active |  |
| C[C@]12C=CC(=O)C=C1CC[C@H]1[C@@H]3C[C@@H](O)[C@](O)(C(=O)CO)[C@@]3(C)C[C@H](O)[C@@]12F [TRIAMCINOLONE] | Not Active | Not Active |  | IC50 (Glucocorticoid receptor): 58 nM; Ki (Glucocorticoid receptor): 26 nM |
| CCOC(=O)c1ncn2c1CN(C)C(=O)c1cc(F)ccc1-2 [FLUMAZENIL] | Not Active | Not Active | Not Active |  |
| NNCCc1ccccc1 [PHENELZINE] | Not Active | Not Active |  | IC50 (Cytochrome P450 2C19): 800 nM; IC50 (Cytochrome P450 2D6): 1000 nM; IC50 (Cytochrome P450 2C9): 4000 nM |
| COc1ccc2c(c1OC)C(=O)O[C@@H]2[C@H]1c2c(cc3c(c2OC)OCO3)CCN1C [NOSCAPINE] | Not Active | Not Active |  | IC50 (Cytochrome P450 2C19): 400 nM; IC50 (Cytochrome P450 2C9): 8180 nM |
| COBALTOUS CHLORIDE | Not Active | Not Active | Not Active | Ki ([1]; insect cells): Not Active; Ki (D(4) dopamine receptor): Not Active; Ki (Androgen receptor [2]): Not Active |
| CC(=O)Oc1ccccc1C(=O)O [ASPIRIN] | Not Active | Not Active | Not Active |  |
| Cc1c(O)cccc1C(=O)N[C@@H](CSc1ccccc1)[C@H](O)CN1C[C@H]2CCCC[C@H]2C[C@H]1C(=O)NC(C)(C)C |  | Not Active |  | IC50 ([1]; read-out: IC50): 7970 nM; IC50 (Androgen receptor [3]): 36400 nM; Ki (Androgen receptor [3]): 24300 nM |
| O=C(O)CCCc1cccs1 | Not Active | Not Active | Not Active |  |
| CC(=O)OC[C@H]1O[C@@H](n2ncc(=O)[nH]c2=O)[C@H](OC(C)=O)[C@@H]1OC(C)=O [AZARIBINE] | Not Active | Not Active | Not Active |  |
| COC(=O)Nc1nc2cc(C(=O)c3ccc(F)cc3)ccc2[nH]1 [FLUBENDAZOLE] | Not Active | Not Active | Not Active |  |
| Cc1ccc(C)c(OCCCC(C)(C)C(=O)O)c1 [GEMFIBROZIL] | Not Active | Not Active | Not Active |  |
| CNC1=Nc2ccc(Cl)cc2C(c2ccccc2)=[N+]([O-])C1 [CHLORDIAZEPOXIDE] | Not Active | Not Active | Not Active |  |
| CC(O)COC[C@H]1O[C@@H]2O[C@H]3[C@H](O)[C@@H](O)[C@@H](O[C@H]4[C@H](O)[C@@H](O)[C@@H](O[C@H]5[C@H](O)[C@@H](O)[C@@H](O[C@H]6[C@H](O)[C@@H](O)[C@@H](O[C@H]7[C@H](O)[C@@H](O)[C@@H](O[C@H]8[C@H](O)[C@@H](O)[C@@H](O[C@H]1[C@H](O)[C@H]2O)O[C@@H]8COCC(C)O)O[C@@H]7COCC(C)O)O[C@@H]6COCC(C)O)O[C@@H]5COCC(C)O)O[C@@H]4COCC(C)O)O[C@@H]3COCC(C)O (stereo partly drawn) [2-HYDROXYPROPYL-BETA-CYCLODEXTRIN] |  | Not Active |  | IC50 ([1]; read-out: IC50): 3040 nM; IC50 (Androgen receptor [3]): 2160 nM; Ki (Androgen receptor [3]): 1440 nM |
| C[C@]12CC[C@@H]3c4ccc(O)cc4CC[C@H]3[C@@H]1C[C@@H](O)[C@@H]2O [ESTRIOL] | Not Active | Not Active |  | IC50 (Glucocorticoid receptor): 39300 nM; Ki (Glucocorticoid receptor): 17900 nM |
| CN1CCN(C(c2ccccc2)c2ccccc2)CC1 [CYCLIZINE] | Not Active | Not Active | Not Active | IC50 (Cytochrome P450 2D6): 6220 nM |
| COc1cc(OC)c(C(=O)CCCN2CCCC2)c(OC)c1 [BUFLOMEDIL] | Not Active | Not Active | Not Active |  |
